Assay results: patent publication US20260001847A1, “HERBICIDAL QUINOLONE DERIVATIVES” (SYNGENTA CROP PROTECTION AG, priority 2022, published 2026)
Marks after values point to notes of the source that are not given here.

Experiments:
Type in all cases: in vivo
[1] = system: Amaranthus retoflexus (AMARE); assay: Pre-emergence Test; conditions: evaluated after 13 days
Setaria faberi (SETFA) [2] = assay: Pre-emergence Test; conditions: 1000 g/ha, evaluated after 13 days
[3] = system: Amaranthus palmeri (AMAPA); assay: Pre-emergence Test; conditions: evaluated after 13 days
Zea mays (ZEAMX) [4] = assay: Pre-emergence Test; conditions: 1000 g/ha, evaluated after 13 days
[5] = system: Echinochloa crus-galli (ECHCG); assay: Pre-emergence Test; conditions: 1000 g/ha, evaluated after 13 days
Setaria faberi (SETFA) [6] = assay: Post-emergence Test; conditions: evaluated after 13 days
Protocol: (§1) Seeds of a variety of test species are sown in standard soil in pots (Abutilon theophrasti (ABUTH), Ipomoea hederacea (IPOHE). Setaria faberi (SETFA), Echinochloa crus-galli (ECHCG), Zea mays (ZEAMX), Amaranthus retoflexus (AMARE), Solanum nigrum (SOLNI), Lolium perenne (LOLPE), Amaranthus palmeri (AMAPA)). After 8 days cultivation under controlled conditions in a glasshouse (at 24° C./16° C., day/night-; 14 hours light; 65% humidity), the plants are sprayed with an aqueous spray solution derived from the formulation of the technical active ingredient in acetone/water (50:50) solution containing 0.5% Tween 20 (polyoxyethylene sorbitan monolaurate, CAS RN 9005-64-5). Compounds are applied at 1000 g/ha unless otherwise stated. The test plants are then grown in a glasshouse under controlled conditions in a glasshouse (at 24° C./16° C., day/night; 14 hours light; 65% humidity) and watered twice daily. After 13 days the test is evaluated for the percentage damage caused to the plant. The biological activities are shown in the following table on a five-point scale (5=81-100%; 4=61-80%; 3=41-60%; 2=21-40%; 1=0-20%; -=not tested).

Zea mays (ZEAMX) [7] = assay: Post-emergence Test; conditions: evaluated after 13 days
Protocol: as §1

[8] = system: Amaranthus retoflexus (AMARE); assay: Post-emergence Test; conditions: evaluated after 13 days
Protocol: as §1

[9] = system: Echinochloa crus-galli (ECHCG); assay: Post-emergence Test; conditions: evaluated after 13 days
Protocol: as §1

[10] = system: Ipomoea hederacea (IPOHE); assay: Post-emergence Test; conditions: evaluated after 13 days
Protocol: as §1

[11] = system: Amaranthus palmeri (AMAPA); assay: Post-emergence Test; conditions: evaluated after 13 days
Protocol: as §1

[12] = system: Ipomoea hederacea (IPOHE); assay: Pre-emergence Test; conditions: evaluated after 13 days

SMILES | percentage damage caused to the plant, AMARE ([1]; 1000 g/ha) | percentage damage caused to the plant, SETFA (Setaria faberi (SETFA) [2]) | percentage damage caused to the plant, AMAPA ([3]; 1000 g/ha) | percentage damage caused to the plant, ZEAMX (Zea mays (ZEAMX) [4]) | percentage damage caused to the plant, ECHCG [5] | percentage damage caused to the plant, SETFA (Setaria faberi (SETFA) [6]; 1000 g/ha) | percentage damage caused to the plant, ZEAMX (Zea mays (ZEAMX) [7]; 1000 g/ha) | percentage damage caused to the plant, AMARE ([8]; 1000 g/ha) | percentage damage caused to the plant, ECHCG ([9]; 1000 g/ha) | percentage damage caused to the plant, IPOHE ([10]; 1000 g/ha) | percentage damage caused to the plant, AMAPA ([11]; 1000 g/ha) | percentage damage caused to the plant, IPOHE ([12]; 1000 g/ha) | further results
CCn1c(-c2ccc(Cl)c(Cl)c2)c(C(=O)O)c(=O)c2c(Br)cccc21 [Compound 4, 5-bromo-2-(3,4-dichlorophenyl)-1-ethyl-4-oxo-quinoline-3-carboxylic acid] | 1 (1=0-20%) | 5 (5=81-100%) | 2 (2=21-40%) | 3 (3=41-60%) | 5 (5=81-100%) | 1 (1=0-20%) | 1 (1=0-20%) | 0 | 1 (1=0-20%) | 1 (1=0-20%) | 0 | 1 (1=0-20%) | –
CCn1c(-c2ccc(Cl)c(Cl)c2)c(C(=O)O)c(=O)c2cc(C(F)(F)F)ccc21 [Compound 16, 2-(3,4-dichlorophenyl)-1-ethyl-4-oxo-6-(trifluoromethyl)quinoline-3-carboxylic acid] | 1 (1=0-20%) | 5 (5=81-100%) | – | 1 (1=0-20%) | 5 (5=81-100%) | 4 (4=61-80%) | 3 (3=41-60%) | 0 | 4 (4=61-80%) | 2 (2=21-40%) | 0 | 1 (1=0-20%) | –
CCn1c(-c2ccc(F)cc2)c(C(=O)O)c(=O)c2ccccc21 [Compound 18, 1-ethyl-2-(4-fluorophenyl)-4-oxo-quinoline-3-carboxylic acid] | 1 (1=0-20%) | 3 (3=41-60%) | 1 (1=0-20%) | 0 | 2 (2=21-40%) | 1 (1=0-20%) | 1 (1=0-20%) | 1 (1=0-20%) | 1 (1=0-20%) | 0 | 1 (1=0-20%) | 0 | –
CCn1c(-c2ccc(Cl)c(Cl)c2)c(C(=O)O)c(=O)c2cc(S(C)(=O)=O)ccc21 [Compound 12, 2-(3,4-dichlorophenyl)-1-ethyl-6-methylsulfonyl-4-oxo-quinoline-3-carboxylic acid] | 3 (3=41-60%) | 5 (5=81-100%) | 3 (3=41-60%) | 1 (1=0-20%) | 5 (5=81-100%) | 3 (3=41-60%) | 1 (1=0-20%) | 3 (3=41-60%) | 4 (4=61-80%) | 2 (2=21-40%) | 2 (2=21-40%) | 1 (1=0-20%) | –
CCn1c(-c2ccc(Cl)c(Cl)c2)c(C(=O)O)c(=O)c2cc(OC)ccc21 [Compound 15, 2-(3,4-dichlorophenyl)-1-ethyl-6-methoxy-4-oxo-quinoline-3-carboxylic acid] | 3 (3=41-60%) | 5 (5=81-100%) | 3 (3=41-60%) | 1 (1=0-20%) | 4 (4=61-80%) | 2 (2=21-40%) | 1 (1=0-20%) | 2 (2=21-40%) | 3 (3=41-60%) | 2 (2=21-40%) | 2 (2=21-40%) | 2 (2=21-40%) | –
CCn1c(-c2ccc(Cl)c(Cl)c2)c(C(=O)O)c(=O)c2cc(SC)ccc21 [Compound 11, 2-(3,4-dichlorophenyl)-1-ethyl-6-methylsulfanyl-4-oxo-quinoline-3-carboxylic acid] | 1 (1=0-20%) | 5 (5=81-100%) | 3 (3=41-60%) | 2 (2=21-40%) | 5 (5=81-100%) | 3 (3=41-60%) | 2 (2=21-40%) | 2 (2=21-40%) | 4 (4=61-80%) | 1 (1=0-20%) | 3 (3=41-60%) | 1 (1=0-20%) | –
CCn1c(-c2ccc(Cl)c(Cl)c2)c(C(=O)O)c(=O)c2c(C#N)cccc21 [Compound 17, 5-cyano-2-(3,4-dichlorophenyl)-1-ethyl-4-oxo-quinoline-3-carboxylic acid] | – | – | – | – | – | – | – | – | – | – | – | – | percentage damage caused to the plant, AMARE ([1]; 250 g/ha): 1* (1=0-20%); percentage damage caused to the plant, AMAPA ([3]; 250 g/ha): 1* (1=0-20%); percentage damage caused to the plant, SETFA (Setaria faberi (SETFA) [6]; 250 g/ha): 1* (1=0-20%); percentage damage caused to the plant, ZEAMX (Zea mays (ZEAMX) [7]; 250 g/ha): 0*; percentage damage caused to the plant, AMARE ([8]; 250 g/ha): 2* (2=21-40%); percentage damage caused to the plant, ECHCG ([9]; 250 g/ha): 1* (1=0-20%); percentage damage caused to the plant, IPOHE ([10]; 250 g/ha): 2* (2=21-40%); percentage damage caused to the plant, AMAPA ([11]; 250 g/ha): 2* (2=21-40%); percentage damage caused to the plant, IPOHE ([12]; 250 g/ha): 1* (1=0-20%)
CCn1c(-c2ccc(Cl)c(Cl)c2)c(C(=O)O)c(=O)c2cc(F)ccc21 [Compound 6, 2-(3,4-dichlorophenyl)-1-ethyl-6-fluoro-4-oxo-quinoline-3-carboxylic acid] | – | 5 (5=81-100%) | – | 0 | 5 (5=81-100%) | 4 (4=61-80%) | 4 (4=61-80%) | 1 (1=0-20%) | 4 (4=61-80%) | 3 (3=41-60%) | 3 (3=41-60%) | 0 | –
CCn1c(-c2ccc(Cl)c(Cl)c2)c(C(=O)O)c(=O)c2cc(C)ccc21 [Compound 14, 2-(3,4-dichlorophenyl)-1-ethyl-6-methyl-4-oxo-quinoline-3-carboxylic acid] | 5 (5=81-100%) | 4 (4=61-80%) | 5 (5=81-100%) | 2 (2=21-40%) | 4 (4=61-80%) | 3 (3=41-60%) | 2 (2=21-40%) | 5 (5=81-100%) | 3 (3=41-60%) | 3 (3=41-60%) | 5 (5=81-100%) | 2 (2=21-40%) | –
CCn1c(-c2ccc(Cl)c(Cl)c2)c(C(=O)O)c(=O)c2cc(Br)ccc21 [Compound 8, 6-bromo-2-(3,4-dichlorophenyl)-1-ethyl-4-oxo-quinoline-3-carboxylic acid] | 1 (1=0-20%) | 5 (5=81-100%) | 2 (2=21-40%) | 2 (2=21-40%) | 5 (5=81-100%) | 4 (4=61-80%) | 4 (4=61-80%) | 0 | 4 (4=61-80%) | 4 (4=61-80%) | 1 (1=0-20%) | 1 (1=0-20%) | –
